Test [1] has as its system Ph+ALL cell strain (KOPN57bi). As to the kind of experiment: Apoptosis by active caspase-3 antibody, flow cytometry. It is filed as cell-based, human. The note with it: LMD 20 μM, IM 0.5 μM, 3 days, compared with no addition. From the text:
After fixation of cell membrane, the cells were stained with anti-active caspase-3 antibodies and positive cells were investigated by using flow cytometry.
On the technique in general: A flow cytometer gives signals particle by particle.

The test system of a further test is IKZF1 protein. Briefly: Change of IKZF1 expression by western blotting. It is filed as cell-based, human. The note with it: KOPN57bi; LMD 20 μM, IM 0.5 nM; 24 hours. (In general: In western blotting, separated proteins are transferred to a membrane and probed.)
The test system of test [2] is Ph+ALL cell strain (KOPN57bi). Briefly: Viable cells by alamar blue method. It is filed as cell-based, human. As to conditions: LMD 20 μM, IM 0.5 μM, 3 days. For orientation: The colour change of resazurin is a common sign of viable cells or microbes.
Test [3] concerns Ph+ALL cell strain (KOPN57bi). As to the kind of experiment: Immunodeficient mice transplanted with Ph+ALL cells, in vivo. Set-up: species or system NOD/SCID/γ null mouse (NOG mouse). The note with it: NOG mouse; LMD 30 mg/kg/day, IM 150 mg/kg/day, PO; two weeks after administration; saline approximately 30%.
From the text: NOD/SCID/γ null mouse (NOG mouse) is widely used for research as immunodeficient mouse capable of efficiently transplanting human hematopoietic stem cells or tumor cells. A mouse transplanted with human leukemia cells is a system that can study therapeutic effect of a drug on human leukemia cells in the mouse body (in vivo). […] The mice were observed over time. Proportion of Ph+ALL cells in mononuclear cell fraction was investigated by using flow cytometry after isolating mononuclear cell fraction from mouse bone marrow blood two weeks after administration and staining with anti-human CD45 antibody binding to human leukemia cells.
Test [4] has as its system Ph+ALL cell strain (KOPN57bi). As to the kind of experiment: Cell turnover by PI staining, flow cytometry. It is filed as cell-based, human. The note with it: LMD 20 μM, IM 0.5 μM, 3 days. The procedure: When PI staining is performed under the condition that the cell membrane/nuclear membrane is fixed with a drug and PI can freely bind to intranuclear DNA, staining intensity changes depending on amount of DNA. Thus, cell turnover stop phase (G0/G1 phase, 2N), DNA synthesis phase (S phase, 2N→4N), pre-cell division phase (G2 phase, 4N) and cell division phase (M phase, 4N→2N) can be distinguished each other by using flow cytometry. In addition, when the cell death is induced by apoptosis, a cell fraction that DNA amount decreases by DNA cleavage (less than 2N) from the G0/G1 phase is detected.

Test [5] deals with Ph+ALL cell strain (KOPN57bi). As to the kind of experiment: Cell death by Annexin V/propidium iodide (PI) double staining, flow cytometry. As to conditions: Homo sapiens, 72 h, read-out: viable cell fraction (Annexin V-, PI-). From the text: At an early stage of cell death, specific phospholipids are exposed on the cell membrane. By labeling Annexin V, which strongly binds to the phospholipid, with a fluorescent dye, rate of the early cell death can be detected by using flow cytometry. On the other hand, at a late stage of cell death, cell membrane/nuclear membrane is partially destroyed.

For the next test, the system named is Ph+ALL strain KOPN57bi. Briefly: H^3-thymidine uptake method, Ph+ALL strain KOPN57bi. It is filed as cell-based. The note with it: Homo sapiens, 144 h, read-out: % inhibition of H^3-thymidine uptake. An excerpt: Effect in the combination was recognized from 2 days in the culture, and % inhibition reached to 90% or more on 3 days in the culture.

Consider `Cc1ccc(NC(=O)c2ccc(CN3CCN(C)CC3)cc2)cc1Nc1nccc(-c2cccnc2)n1` [IM, 4-(4-Methylpiperazin-1-ylmethyl)-N-[4-methyl-3-(4-pyridin-3-ylpyrimidin-2-ylamino)benzamide monomethanesulfonate], for which the “active caspase-3 positive rate” value in test [1] was “slightly increased”. Further, the “expression of dominant-negative isoform (Ik 6)” value in the test on IKZF1 protein was “No change”. Also, the “number of viable cells (alamar blue)” value in test [2] is “mildly decreased”.

Turning to `Nc1cccc2c1CN(C1CCC(=O)NC1=O)C2=O` (racemic) [LMD, (RS)-3-(4-amino-1-oxo-3H-isoindol-2-yl) piperidine-2,6-dione], the “proportion of Ph+ALL cells (human CD45 positive) in bone marrow mononuclear cell fraction” value in test [3] turned out to be 2.1%. In test [4], the S phase fraction result is reported as “decrease” and the “apoptotic fraction (less than 2N)” value was “mild increase”. Also, the viability at 20 µM in test [5] is approximately 60%. Moreover, in test [1], the “active caspase-3 positive rate” value is reported as “slightly increased”. In addition, the inhibition at 20 µM in the test with Ph+ALL strain KOPN57bi was approximately 80%. In addition, the “number of viable cells (alamar blue)” value in test [2] is “mildly decreased”.

As a reminder, the inhibition is the share of the control response that was lost under treatment.

(Values after US10314834B2, “Therapeutic agent or treatment method for Philadelphia chromosome-positive (Ph+) acute lymphocytic leukemia (ALL) having IKZF1 mutation” (UNIVERSITY OF YAMANASHI, priority 2015, dated 2019).)
